{
  "source": "patent US20260137662A1",
  "about": "“CD11B AGONISTS FOR TREATMENT OF AUTOIMMUNE DISEASE” (Rush University Medical Center, priority 2022, published 2026)",
  "key": {"[1]": {"system": "TLR-stimulation dependent pro-inflammatory pathways", "test": "suPAR and TNFa secretion from myeloid (RAW) cells stimulated with TLR-stimulants or PMA (ELISA)", "format": "cell-based, murine", "details": "co-treatment TLR-stimulant (LPS, PMA, Pam2CSK4, Pam3CSK4, IMQ) and LA1 (20 uM), 4 hours", "experimental": "(§1) FIG. 2A illustrates the levels of biomarker suPAR secretion from RAW cells after treatment with LPS (50ng/ml), PMA (0.1 ug/mL), Pam2CSK4 (0.1 ug/mL), Pam3CSK4 (0.1 ug/mL), Imiquimod (IMQ) (20 ug/mL), LA1 (20 uM), or co-treatments. Bars show mean with SD (N=3) (*P<0.05, **P<0.01, ***P<0.001, ****P<0.0001).\nas §1, with “2B” for “2A”, “biomarker (A)” for “biomarker”, “suPAR and (B) TNF-a” for “suPAR”\nThe effect of LA1 on TLR-stimulation dependent pro-inflammatory pathways was studied by stimulating myeloid cells with different TLR-stimulants (lipopolysaccharide (LPS), Pam2CSK 4, imiquimod (IMQ)) or with phorbol 12-myristate 13-acetate (PMA) and co-treating with LA1. The levels of suPAR (pg/mL) and TNFa (pg/mL) in cell supernatant were measured 4 hours after treatment using ELISA. […] Relative gene expression was also assessed in myeloid cells treated with Poly(I:C), a known toll-like receptor (TLR) agonist, and co-treated with LA1."}, "[2]": {"system": "humanized mouse model of SLE (SLE-NSG mice)", "test": "Humanized SLE mouse model (NSG mice engrafted with SLE patient PBMCs)", "format": "in vivo", "experimental": "NSG mice engrafted with healthy control or SLE PBMCs were subsequently treated with LA1 or vehicle and human dsDNA levels were measured after 4 weeks of treatment. Each dot represents a unique sample. Bars show mean +/−SEM (n=3-6).\nNSG mice engrafted with healthy control or SLE PBMCs were subsequently treated with LA1 or vehicle and suPAR levels were measured after 4 weeks of treatment. Each dot represents a unique sample. Bars show mean +/−SEM (n=3-6). […]\nNSG mice engrafted with healthy control or SLE PBMCs were subsequently treated with LA1 or vehicle and ACR was measured after 4 weeks of treatment. Each dot represents a unique sample. Bars show mean +/−SEM (n=3-6).\nFIG. 14A illustrates alopecia in control mouse models (Ctrl), mice engrafted with heathy PBMCs (HC), humanized SLE models treated with vehicle (Veh), and humanized SLE models treated with LA1. […]\nThe efficacy of CD11b agonist LA1 as a therapeutic was studied using a generated humanized mouse model of SLE. To generate the humanized SLE model, immunocompromised NSG mice engrafted with peripheral blood mononuclear cells (PBMCs) from either SLE patients or from healthy human donors (control). 2.5×10^6 purified PBMCs were injected intravenously into NSG mice on day 0. The humanized mice were monitored daily for significant clinical signs of SLE (alopecia, skin lesions, weight loss & arthritis), morbidity and mortality. Body weights were recorded weekly and skin lesions were photographed and scored weekly.\nA small sample of peripheral blood was drawn from the mice under general anesthesia 2, 4 and 6 wks post-humanization by penetrating the retro-orbital sinus in mice with a sterile Pasteur pipette. The blood sample was split for fluorescence-activated cell sorting (FACS) analysis and serum preparation. […] For serum, the whole blood was clotted at room temperature for 30 minutes, followed by a 10-minute centrifugation at 10,000 RPM. The red blood cell-free serum was transferred into micro-centrifuge tubes and stored at −80° C. until further analysis. Additionally, urine samples were collected weekly, transferred into a micro-centrifuge tube and stored at −80° for future analysis. Urine protein was measured using a sandwich ELISA specific for mouse albumin (Bethyl Laboratories, TX) and urinary creatinine was determined using the Creatinine Companion kit (Exocell, PA) according to manufacturer's protocol.\nTo test the efficacy of LA1 on humanized SLE mouse models, the generated SLE-NSG mice were treated with LA1 (2 mg/kg i.p. daily) starting at two weeks post administration of PBMCs and until experiment completion. Concentrations of human dsDNA, mouse suPAR, and IFNb were measured in NSG mice, NSG mice engrafted with PBMCs from a healthy donor, untreated SLE-NSG mice, SLE-NSG mice treated with a vehicle, and SLE-NSG mice treated with LA1."}, "MRL/lpr mice": {"system": "MRL/lpr mice", "test": "MRL/lpr mouse model of lupus and LN: alopecia and skin lesions", "format": "in vivo", "details": "for alopecia (nose area): Mrl/lpr mice", "excerpt": "FIG. 13B illustrates percentage of skin effected by alopecia on the nose area of untreated mice (Ctrl), mice treated with a vehicle (Veh), and mice treated with LA1 (LA1). […] Bars show mean +/−SEM (n=5).\nFIG. 13C illustrates lesion size (mm) in untreated mice (Ctrl), mice treated with a vehicle (Veh), and mice treated with LA1 (LA1). […] Bars show mean +/−SEM (n=5).\nTo evaluate the efficacy of LA1 as a treatment for LN, MRL/ipr mouse models were used. MRL/lpr mice develop high circulating levels of IFN-I, systemic inflammation and multi-organ pathology, including skin, vascular, and kidney damage, and LN. Thus, this genetic mouse model mimics several features of human lupus and LN."}, "[3]": {"details": "LA1 2 mg/kg i.p. daily from two weeks post PBMCs, after 4 weeks of treatment, vs vehicle, 2 mg/kg"}, "[4]": {"details": "humanized SLE mice treated with LA1 vs vehicle"}},
  "note": "“Also recorded” adds a separate entry of the source.",
  "data": [
    {"smiles": "O=C(O)c1ccc(-c2ccc(/C=C3\\SC(=S)N(Cc4ccccc4)C3=O)o2)cc1", "note": "[LA1, (Z)-4-(5-((3-benzyl-4-oxo-2-thioxothiazolidin-5-ylidene)methyl)furan-2-yl)benzoic acid]", "values": [
      {"measurement": "levels of biomarker TNFa in cell supernatant", "setting": "[1]", "value": "significantly reduced"},
      {"measurement": "levels of biomarker suPAR in cell supernatant", "setting": "[1]", "value": "significantly reduced"},
      {"measurement": "concentration of IFNb in the serum", "setting": "[2]; [3]", "value": "significantly reduced; also recorded: reduction"},
      {"measurement": "concentration of anti-double stranded DNA antibodies (human dsDNA) in the serum", "setting": "[2]; [3]", "value": "significantly reduced; also recorded: reduction"},
      {"measurement": "concentration of suPAR in the serum", "setting": "[2]; [3]", "value": "significantly reduced; also recorded: reduction"},
      {"measurement": "urinary albumin creatinine ratios (ACR)", "setting": "[2]; [3]", "value": "significantly reduced; also recorded: reduction"},
      {"measurement": "alopecia (nose area)", "setting": "[2]; [4]", "value": "significantly reduced; also recorded: reduces alopecia"},
      {"measurement": "number of GR1-positive, CD11b-positive cells in spleens", "setting": "[2]; [4]", "value": "reduction in number"},
      {"measurement": "number of neutrophils infiltrating in the kidney (H&E staining)", "setting": "[2]; [4]", "value": "reduction in number"},
      {"measurement": "skin lesions", "setting": "MRL/lpr mice; Mrl/lpr mice treated with LA1, co-treatment and delayed treatment", "value": "reduces clinical symptoms"},
      {"measurement": "alopecia (nose area)", "setting": "MRL/lpr mice; LA1 as co-treatment", "value": "reduction in alopecia"},
      {"measurement": "alopecia (nose area)", "setting": "MRL/lpr mice; LA1 treatment after 2-weeks of disease onset", "value": "reduction in alopecia"}
    ]}
  ]
}
